From ChEMBL document CHEMBL1250444, “Nitric oxide activates TRP channels by cysteine S-nitrosylation” (Nat Chem Biol, 2006) come the findings set out here.

The test system of assay [1] is HEK293. Description: Activation of rat TRPV1 Cys616 mutant expressed in HEK cells assessed as increase in Ca2+ level from extracellular space at 0.1 to 1 mM. It is filed as cell-based.
Assay [2] concerns T1, Short transient receptor potential channel 5 (Homo sapiens), Q9UL62 [C558S].
T1 sequence (whole entry): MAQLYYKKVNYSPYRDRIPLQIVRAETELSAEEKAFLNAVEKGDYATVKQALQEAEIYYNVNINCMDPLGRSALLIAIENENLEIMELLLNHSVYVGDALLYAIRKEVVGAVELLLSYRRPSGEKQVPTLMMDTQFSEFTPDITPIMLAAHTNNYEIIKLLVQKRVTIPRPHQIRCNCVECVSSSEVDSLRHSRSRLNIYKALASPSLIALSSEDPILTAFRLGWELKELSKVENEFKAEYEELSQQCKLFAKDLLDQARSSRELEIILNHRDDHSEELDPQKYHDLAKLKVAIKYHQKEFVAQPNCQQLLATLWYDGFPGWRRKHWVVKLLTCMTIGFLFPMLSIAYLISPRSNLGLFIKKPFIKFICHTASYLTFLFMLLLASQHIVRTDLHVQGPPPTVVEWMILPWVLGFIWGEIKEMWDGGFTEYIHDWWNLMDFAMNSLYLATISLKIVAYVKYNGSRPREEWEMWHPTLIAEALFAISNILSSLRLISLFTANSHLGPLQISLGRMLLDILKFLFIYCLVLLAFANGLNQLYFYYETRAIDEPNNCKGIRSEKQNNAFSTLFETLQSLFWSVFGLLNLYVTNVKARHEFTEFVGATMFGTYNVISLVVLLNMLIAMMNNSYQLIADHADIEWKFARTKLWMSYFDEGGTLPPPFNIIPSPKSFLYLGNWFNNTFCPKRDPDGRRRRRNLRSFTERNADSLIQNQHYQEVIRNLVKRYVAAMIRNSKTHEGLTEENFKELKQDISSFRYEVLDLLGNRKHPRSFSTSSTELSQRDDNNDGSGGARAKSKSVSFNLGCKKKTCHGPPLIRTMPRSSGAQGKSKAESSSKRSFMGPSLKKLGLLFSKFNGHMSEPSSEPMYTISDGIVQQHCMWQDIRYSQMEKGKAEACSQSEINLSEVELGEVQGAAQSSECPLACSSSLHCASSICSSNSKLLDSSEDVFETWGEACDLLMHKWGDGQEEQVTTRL
Description: Decrease in TRPC5 C558S mutant S-nitrosylation in HEK cells assessed as inhibition of incorporation of DTNB-2Bio at 300 uM relative to control. As to conditions: HEK293. The assay is classed as cell-based.

Assay [3] concerns the target T2, Transient receptor potential cation channel subfamily V member 3 (Homo sapiens) (UniProt Q8NET8).
T2 sequence (whole entry): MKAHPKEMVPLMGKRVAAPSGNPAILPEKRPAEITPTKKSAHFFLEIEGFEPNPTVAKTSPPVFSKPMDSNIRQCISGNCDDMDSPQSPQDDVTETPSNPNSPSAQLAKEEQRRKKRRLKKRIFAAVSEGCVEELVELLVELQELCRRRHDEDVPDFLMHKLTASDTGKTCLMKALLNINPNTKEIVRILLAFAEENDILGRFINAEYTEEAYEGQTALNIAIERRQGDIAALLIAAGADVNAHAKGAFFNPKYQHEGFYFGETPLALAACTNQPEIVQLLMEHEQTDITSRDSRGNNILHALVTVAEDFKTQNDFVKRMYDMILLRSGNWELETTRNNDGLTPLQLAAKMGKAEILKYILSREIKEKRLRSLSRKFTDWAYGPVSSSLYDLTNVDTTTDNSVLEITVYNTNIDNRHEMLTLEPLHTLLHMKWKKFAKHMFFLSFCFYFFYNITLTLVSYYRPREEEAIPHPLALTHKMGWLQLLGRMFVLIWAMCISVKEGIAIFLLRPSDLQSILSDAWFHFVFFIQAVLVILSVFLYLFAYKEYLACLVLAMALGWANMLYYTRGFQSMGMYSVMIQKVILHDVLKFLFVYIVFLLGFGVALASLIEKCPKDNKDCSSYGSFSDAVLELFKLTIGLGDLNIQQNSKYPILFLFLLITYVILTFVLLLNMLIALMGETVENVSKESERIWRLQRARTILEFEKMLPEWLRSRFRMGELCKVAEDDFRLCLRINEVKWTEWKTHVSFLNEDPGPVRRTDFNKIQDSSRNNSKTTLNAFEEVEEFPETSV
The experiment in a line: Activation of TRPV3 in HEK cells assessed as increase in Ca2+ level from extracellular space at 300 uM. It is filed as cell-based. To be noted: HEK293.

The target in assay [4] is Transient receptor potential cation channel subfamily V member 4 (Homo sapiens) (UniProt Q9HBA0). The experiment in a line: Activation of TRPV4 in HEK cells assessed as increase in Ca2+ level from extracellular space at 10 uM. The assay is classed as cell-based. To be noted: HEK293.
Assay [5] has as its target T3, Short transient receptor potential channel 5 (Homo sapiens) (UniProt Q9UL62).
T3 sequence (whole entry): T1 sequence (whole entry) with S558C
Description: Activation of TRPC5 expressed in BAEC expressing dominant negative mutant of TRPC5 assessed as increase in Ca2+ level from extracellular space at 100 uM.

Assay [6] concerns the target T3, Short transient receptor potential channel 5 (Homo sapiens). The experiment in a line: Activation of TRPC5 expressed in BAEC expressing TRPC5 siRNA assessed as increase in Ca2+ level from extracellular space at 100 uM.

Each structure is given as a SMILES string. Where a chain is given by its changes, count along the chain named. The source made the active and inactive calls. No cut-off for these calls is given here.

Sequence of Transient receptor potential cation channel subfamily V member 4 (Homo sapiens) (Q9HBA0 whole entry): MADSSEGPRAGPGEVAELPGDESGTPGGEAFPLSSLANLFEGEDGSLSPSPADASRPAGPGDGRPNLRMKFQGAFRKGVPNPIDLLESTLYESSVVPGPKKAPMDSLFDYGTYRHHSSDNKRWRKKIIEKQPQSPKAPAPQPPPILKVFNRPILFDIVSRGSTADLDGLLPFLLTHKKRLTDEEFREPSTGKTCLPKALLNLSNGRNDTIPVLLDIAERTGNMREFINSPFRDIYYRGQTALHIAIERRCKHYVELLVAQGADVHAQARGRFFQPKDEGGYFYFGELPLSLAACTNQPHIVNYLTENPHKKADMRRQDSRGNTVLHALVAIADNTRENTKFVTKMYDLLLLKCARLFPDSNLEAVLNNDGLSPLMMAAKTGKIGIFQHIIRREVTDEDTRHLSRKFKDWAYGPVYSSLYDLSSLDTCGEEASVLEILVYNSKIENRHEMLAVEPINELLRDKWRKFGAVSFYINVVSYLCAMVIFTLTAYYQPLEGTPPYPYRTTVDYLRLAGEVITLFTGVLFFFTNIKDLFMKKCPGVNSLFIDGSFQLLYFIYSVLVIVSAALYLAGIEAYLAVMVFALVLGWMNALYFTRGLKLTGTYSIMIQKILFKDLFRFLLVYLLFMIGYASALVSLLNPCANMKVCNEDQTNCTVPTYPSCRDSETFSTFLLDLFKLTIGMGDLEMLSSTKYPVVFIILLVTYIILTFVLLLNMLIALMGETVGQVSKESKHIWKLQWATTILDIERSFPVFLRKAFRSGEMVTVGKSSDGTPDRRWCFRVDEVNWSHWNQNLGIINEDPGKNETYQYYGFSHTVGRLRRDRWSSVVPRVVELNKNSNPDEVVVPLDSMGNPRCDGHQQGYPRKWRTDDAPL

For `CC(=O)N[C@@H](C(=O)O)C(C)(C)SN=O` (racemic), in assay [1], the result was inactive. The outcome in assay [2] and in assay [3] was Active.
As to `O=[N+]([O-])c1ccc(SSc2ccc([N+](=O)[O-])cn2)nc1`, the outcome in assay [4] was Active. Besides, the result in assay [5] and in assay [6] was inactive.
